Assay in all cases: inhibition of tumour cell growth, NCI panel, 48 h
Experiment [1] has as its system EKVX.
For experiment [2], the system named is M14.
Experiment [3] concerns MCF7.
Experiment [4] has as its system IGROV-1.
The subject of experiment [5] is RPMI-8226.
The subject of experiment [6] is CCRF-CEM.
For experiment [7], the system named is CAKI-1.
Experiment [8] deals with NCI-H226.
The subject of experiment [9] is HL-60.
The subject of experiment [10] is SNB-19.
Experiment [11] deals with HT-29.
In experiment [12] the test system is 786-0.
Experiment [13] deals with HCT-15.
The subject of experiment [14] is COLO 205.
The test system of experiment [15] is OVCAR-4.
Experiment [16] has as its system DU-145.
The subject of experiment [17] is TK-10.
Experiment [18] concerns OVCAR-3.
Experiment [19] has as its system NCI-H460.
The subject of experiment [20] is Malme-3M.

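48-hour exposure; five concentrations; linearly interpolated endpoints. GI50 is the concentration that inhibits growth by half.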 Activity calls are given as the source filed them. No stated cut-off is given here; in the data, active = GI50 up to about 1.1 µM and inactive = higher.

Consider eleven compounds from ChEMBL document CHEMBL1201862, “PubChem BioAssay data set” (2004).

With `C=C(Cl)C(Cl)(CCl)CCC(Br)C(C)(C)Br` (stereo not drawn), the GI50 in [1], in experiment [2], in experiment [3], in experiment [4], in experiment [5] and in [6] was > 10 µM (inactive) throughout. Further, the GI50 in experiment [7], in [8], in experiment [9], in experiment [10], in experiment [11] and in [12] was > 10 µM (inactive) in each case. Also, the GI50 in experiment [13] was greater than 10 µM; in experiment [14] it was > 10 µM (inactive); in experiment [15] it was > 10 µM (inactive); in experiment [16] it was > 10 µM (inactive); in experiment [17] it was > 10 µM (inactive); in experiment [18], > 10 µM (inactive).

Take `COc1ccc(CCNC(=O)Cc2cc(OC)c(OC)cc2CO)cc1OC`: the GI50 in experiment [1], in [2], in experiment [3], in [4], in experiment [5] and in [6] was > 100 µM (inactive) throughout. For the same compound, the GI50 in experiment [7] is > 100 µM (inactive); in experiment [8], > 100 µM (inactive); in experiment [9], > 100 µM (inactive); in [11], > 100 µM (inactive); in experiment [12], > 100 µM (inactive); in experiment [13], greater than 100 µM. Moreover, the GI50 in experiment [19], in [14], in experiment [15], in experiment [16], in experiment [17] and in [18] was > 100 µM (inactive) each time.

For the compound `O=S(=O)(O)c1c(Cl)cc(O)c2ncccc12`, the GI50 in experiment [1], in experiment [2], in experiment [3], in experiment [4], in [5] and in [6] was > 100 µM (inactive) in each case. Besides, the GI50 in experiment [7] was > 100 µM (inactive); in [8] it was > 100 µM (inactive); in experiment [10], > 100 µM (inactive); in experiment [11] it was > 100 µM (inactive); in [12] it was > 100 µM (inactive); in experiment [13], greater than 100 µM. Besides, the GI50 in experiment [19], in experiment [14], in [15], in [16] and in experiment [18] was > 100 µM (inactive) throughout.

Regarding `Cc1cc2c(C)cc(=O)[nH]c2cc1N`, the GI50 in experiment [1] is 67.6 µM (inactive); in experiment [2], > 100 µM (inactive); in experiment [3], 67.5 µM (inactive); in experiment [4], > 100 µM (inactive); in [5], > 100 µM (inactive); in experiment [6], > 100 µM (inactive). For the same compound, the GI50 in experiment [7] is > 100 µM (inactive); in experiment [8] it was > 100 µM (inactive); in [10], > 100 µM (inactive); in [11] it was 81.1 µM (inactive); in [12], > 100 µM (inactive); in experiment [13], greater than 100 µM. Also, the GI50 was 65.5 µM (inactive) in experiment [19]; 60.1 µM (inactive) in [14]; > 100 µM (inactive) in experiment [15]; > 100 µM (inactive) in experiment [16]; > 100 µM (inactive) in experiment [18].

Turning to `CC(=O)N1N=C(c2c(O)ccc3ccccc23)CC1c1ccc(Cl)cc1` (stereo not drawn), the GI50 is 14.2 µM (inactive) in experiment [2]; 15.5 µM (inactive) in experiment [3]; 12.4 µM (inactive) in experiment [4]; 10.5 µM (inactive) in experiment [5]; 3.8 µM (inactive) in experiment [6]; 32.9 µM (inactive) in [7]. The GI50 was 17.5 µM (inactive) in [20]; 40 µM (inactive) in experiment [8]; 24.7 µM (inactive) in [11]; 27.1 µM (inactive) in experiment [12]; 28.4 µM in experiment [13]; 15.1 µM (inactive) in experiment [19]. Further, the GI50 was 19.9 µM (inactive) in experiment [14]; 19.6 µM (inactive) in [15]; 43.8 µM (inactive) in experiment [16]; 30.1 µM (inactive) in experiment [17]; 14.1 µM (inactive) in experiment [18].

In the case of `COC(=O)c1c(C(=O)OC)c2c3ccccc3n(C)c2c2c1c1ccccc1n2C`, the GI50 in experiment [1] was 47.1 µM (inactive); in [2] it was > 100 µM (inactive); in experiment [3] it was > 100 µM (inactive); in experiment [4], 16.9 µM (inactive); in experiment [5] it was > 100 µM (inactive); in [6], > 100 µM (inactive). For the same compound, the GI50 in experiment [7] is > 100 µM (inactive); in experiment [20], 89.9 µM (inactive); in experiment [8], > 100 µM (inactive); in [10], 27.6 µM (inactive); in experiment [11] it was > 100 µM (inactive); in [12] it was 34.2 µM (inactive). In addition, the GI50 is greater than 100 µM in experiment [13]; > 100 µM (inactive) in [19]; > 100 µM (inactive) in experiment [14]; 31.4 µM (inactive) in experiment [15]; > 100 µM (inactive) in [16]; > 100 µM (inactive) in experiment [17].

As for `CCN(C(=O)N[C@@H](CC(C)C)C(=O)NCC(=O)OC)c1ccccc1`, the GI50 in experiment [1], in [2], in experiment [3], in experiment [4], in experiment [5] and in experiment [6] was > 100 µM (inactive) throughout. The GI50 in [7] is > 100 µM (inactive); in experiment [20] it was 18 µM (inactive); in experiment [8], > 100 µM (inactive); in experiment [10], > 100 µM (inactive); in [11] it was > 100 µM (inactive); in experiment [12], > 100 µM (inactive). Besides, the GI50 in experiment [13] is greater than 100 µM; in experiment [19] it was 85.7 µM (inactive); in experiment [14], > 100 µM (inactive); in [15], > 100 µM (inactive); in experiment [16], > 100 µM (inactive); in experiment [17] it was > 100 µM (inactive). The GI50 in [18] is > 100 µM (inactive).

As to `C/C(=C\COP(=O)(O)CP(=O)(O)O)CC/C=C(\C)CNc1ccccc1`, the GI50 in experiment [1] was 15.7 µM (inactive); in experiment [2], > 100 µM (inactive); in experiment [3] it was > 100 µM (inactive); in experiment [4], > 100 µM (inactive); in [5], > 100 µM (inactive); in [6], > 100 µM (inactive). Moreover, the GI50 in experiment [7], in [8], in experiment [9], in experiment [10], in [11] and in experiment [12] was > 100 µM (inactive) throughout. Also, the GI50 was greater than 100 µM in experiment [13]; > 100 µM (inactive) in experiment [19]; > 100 µM (inactive) in experiment [14]; > 100 µM (inactive) in experiment [16]; > 100 µM (inactive) in experiment [17]; > 100 µM (inactive) in experiment [18].

As to `O=C(/C=C/c1ccc2ccccc2c1)NCc1ccc(C(=O)NCCc2ccccc2)cc1`, the GI50 was > 100 µM (inactive) in [2]; > 100 µM (inactive) in experiment [3]; > 100 µM (inactive) in [5]; > 100 µM (inactive) in [6]; > 100 µM (inactive) in experiment [7]; 43.5 µM (inactive) in [8]. For the same compound, the GI50 was 43.7 µM (inactive) in experiment [9]; > 100 µM (inactive) in experiment [10]; 64.3 µM (inactive) in experiment [12]; greater than 100 µM in [13]; > 100 µM (inactive) in experiment [19]; > 100 µM (inactive) in experiment [14]. The GI50 in [15], in [16] and in experiment [18] was > 100 µM (inactive) each time.

In the case of `N#Cc1ccc(C(O)C(F)(F)c2nc3ccccc3o2)cc1` (stereo not drawn), the GI50 in experiment [1] was > 100 µM (inactive); in experiment [2], 55.2 µM (inactive); in [3], 46.1 µM (inactive); in experiment [4], 95.5 µM (inactive); in experiment [5], 31.2 µM (inactive); in experiment [6] it was 45.5 µM (inactive). Also, the GI50 in experiment [7] was 31 µM (inactive); in [8], 32.9 µM (inactive); in experiment [9], 43.6 µM (inactive); in [10], > 100 µM (inactive); in [11] it was 81.3 µM (inactive); in experiment [12] it was 84.1 µM (inactive). The GI50 in experiment [13] was greater than 100 µM; in experiment [19], > 100 µM (inactive); in [14], > 100 µM (inactive); in [15] it was 95.5 µM (inactive); in [16], 35.7 µM (inactive); in experiment [17] it was > 100 µM (inactive).

As for `C[N+]1(CCC(=O)c2ccco2)CC2CCC(CC2)C1` (stereo not drawn), the GI50 in experiment [1], in experiment [2], in [3], in experiment [4], in experiment [5] and in experiment [7] was > 100 µM (inactive) each time. The GI50 in [20] was > 100 µM (inactive); in experiment [8], > 100 µM (inactive); in [10], > 100 µM (inactive); in experiment [11] it was > 100 µM (inactive); in [12], > 100 µM (inactive); in experiment [13], greater than 100 µM. Moreover, the GI50 in [19], in experiment [14], in experiment [15], in experiment [16], in [17] and in [18] was > 100 µM (inactive) in each case.
